Measured values reported in patent EP4725505A1, “PROPHYLACTIC AND/OR THERAPEUTIC AGENT FOR SKIN DISORDER ASSOCIATED WITH HISTONE DEACETYLASE 4 ABNORMALITY” (National University Corporation Kobe University, priority 2023, dated 2025).

System: HDAC4
Assay: Improving action on expression of HDAC4 in UV-B-irradiated XP-A-iMCs (RT-PCR)
Format: cell-based, human
Settings: XP-A-iMCs irradiated with high-dose (150 J/m^2) UV-B, compound then added to cell medium, cultured for 24 hours, DMSO control
Experimental: The XP-A-iMCs were seeded into a 60-millimeter dish, and were irradiated with high-dose (150 J/m^2) UV-B when the XP-A-iMCs became about 70% confluent. […] After that, the expression of HDAC4 was recognized by using a RT-PCR method.
The XP-A-iMCs were seeded into a 60-millimeter dish, and were irradiated with high-dose (150 J/m^2) UV-B when the XP-A-iMCs became about 70% confluent.

In the case of `CC1=NN(c2ccc(C(=O)O)cc2)C(=O)C1=Cc1ccc(-c2cc(C)c(C)cc2[N+](=O)[O-])o1` [C-646], the “expression of HDAC4” value is reported as “significantly recovered”.
